Assay results reported in US20160010068A1, “FUSION POLYNUCLEOTIDES AND FUSION POLYPEPTIDES ASSOCIATED WITH CANCER AND PARTICULARLY MELANOMA AND THEIR USES AS THERAPEUTIC AND DIAGNOSTIC TARGETS” (priority 2013, published 2016).

How the values were obtained:
PWWP2A-ROS1 fusion [1] = target: T1, PWWP2A-ROS1 fusion (Homo sapiens, UniProt P08922); assay: Western blot of phosphorylation in melan-a cells expressing PWWP2A-ROS1 fusion construct; type: cell-based, mouse; details: FIG. 3d
T1 construct: exon 1 of PWWP2A is fused with exon 36-43 of ROS1, which contains the tyrosine kinase domain; expressed in transfected cells; host or cells: melan-a cells (immortalized, non-tumorigenic mouse melanocytes), stably transduced with lentivirus (pLenti6.3/TO/V5-Dest)

PWWP2A-ROS1 fusion [2] = target: T1, PWWP2A-ROS1 fusion; assay: Western blot of signaling in melan-a cells expressing the PWWP2A-ROS1 fusion, with crizotinib; type: cell-based; details: representative of three independent experiments
Source text: FIG. 3 depicts ROS1 fusions. […] Scale bar, […]. Scale bar magnification, 50 mm. […] Scale bar, […]. Scale bar magnification, 50 mm. […] Scale bar, 10 mm. (c) Illustration of the PWWP2A-ROS1 kinase fusion. ROS1 is located on […], and PWWP2A on chromosome 5q33. Owing to genomic rearrangements, exon 1 of PWWP2A is fused with exon 36-43 of ROS1, which contains the tyrosine kinase domain. […] The indicated protein weight markers in kDa are estimated from molecular weight standards.
FIG. 8 depicts full western blots of FIG. 3d. (a) p-ROS1, (b) t-ROS1, (c) p-AKT, (d) t-AKT, (e) p-ERK, (f) t-ERK, (g) p-S6, (h) t-S6, (i) p-SHP2, (j) t-SHP2, (k) Hsp60. All molecular weight standards are indicated in kDa.

melanoma = details: twice daily; phase I trial; cited from earlier work

T1 sequence (P08922 with tags, fused parts or gaps): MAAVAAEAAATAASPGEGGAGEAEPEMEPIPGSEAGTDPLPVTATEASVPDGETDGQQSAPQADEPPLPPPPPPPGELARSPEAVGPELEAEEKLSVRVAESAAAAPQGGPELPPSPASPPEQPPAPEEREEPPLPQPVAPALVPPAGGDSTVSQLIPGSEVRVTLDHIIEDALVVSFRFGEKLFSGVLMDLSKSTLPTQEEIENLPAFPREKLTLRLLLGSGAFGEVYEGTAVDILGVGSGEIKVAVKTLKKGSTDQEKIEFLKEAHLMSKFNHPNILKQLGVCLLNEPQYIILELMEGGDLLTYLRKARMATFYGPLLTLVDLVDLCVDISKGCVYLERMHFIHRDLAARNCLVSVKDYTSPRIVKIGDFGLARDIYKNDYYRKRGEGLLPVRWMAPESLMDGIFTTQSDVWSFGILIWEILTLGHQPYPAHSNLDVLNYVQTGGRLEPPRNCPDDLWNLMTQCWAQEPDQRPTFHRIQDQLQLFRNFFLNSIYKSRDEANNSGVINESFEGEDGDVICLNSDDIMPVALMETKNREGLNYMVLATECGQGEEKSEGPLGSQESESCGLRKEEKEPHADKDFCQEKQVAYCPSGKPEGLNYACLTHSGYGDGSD

phosphorylation of ERK (PWWP2A-ROS1 fusion [1])	phosphorylation of PWWP2A-ROS1, AKT, S6 and SHP2 (PWWP2A-ROS1 fusion [1])	p-AKT (PWWP2A-ROS1 fusion [2])	p-S6 (PWWP2A-ROS1 fusion [2])	p-SHP2 (PWWP2A-ROS1 fusion [2])	phosphorylation of the chimeric PWWP2A-ROS1 fusion protein (PWWP2A-ROS1 fusion [2])	SMILES	maximum tolerated dose (melanoma)
not	at least partially inhibited	inhibited at least partially	inhibited at least partially	inhibited at least partially	inhibited at least partially	C[C@@H](Oc1cc(-c2cnn(C3CCNCC3)c2)cnc1N)c1c(Cl)ccc(F)c1Cl [Crizotinib, crizotinib]	–
–	–	–	–	–	–	CCCS(=O)(=O)Nc1ccc(F)c(C(=O)c2c[nH]c3ncc(-c4ccc(Cl)cc4)cc23)c1F [vemurafenib]	60 mg
